Data published in US6528656B1, “Linear or cyclic aminophosphonates as pH markers in phosphorus 31 NMR spectroscopy” (Centre National de la Recherche Scientifique (CNRS), priority 1998, dated 2003).
Like-named read-outs stand apart in the source and are kept apart here. Each block holds one compound with its values, some of them ahead of it.

Columns and labels:
tumour cell line = conditions: cited from earlier work
[1] = tested on: myocardial or liver cells; experiment: toxicity, cell penetration and 31P NMR pH measurement in myocardial or liver cells; type: cell-based
Text: The compounds of formulae (II.1) and (II.2) are on the whole particuarly non-toxic and penetrate into myocardial or liver cells (in sufficient amount to be observed but in a sufficiently small amount to remain non-toxic), thus allowing a measurement of the pH values of intracellular and extracellular media.

physchem [2] = type: physicochemical; conditions: 37° C., 5 mM solution in phosphate buffer, 400 MHz NMR, from titration curve
physchem [3] = experiment: physchem

SMILES: O=CC[C@@H](O)[C@H](O)[C@H](O)COP(=O)(O)O [2-deoxyglucose 6-phosphate, 2-Deoxyglucose 6-phosphate]
metabolism (tumour cell line): not metabolized
toxicity (tumour cell line): toxic to the cell

SMILES: CCOP(=O)(OCC)C1(C)CCCN1 (centres unmarked) [Compound 1, 2-methyl-2-diethoxyphosphorylpyrrolidine]
variations in the phosphorus chemical shift as a function of intracellular acidosis versus intracellular Pi ([1]; in the course of ischaemia, cytosolic medium): fully correlated
pH measurements in liver compartments (extracellular, cytosolic, intravesicular medium) ([1]; liver, very acidic (pH 5) vesicles): allows three measurements at the same time

SMILES: CCOP(=O)(OCC)C1(P(=O)(OCC)OCC)CCCN1 [Compound 2, 2,2-bis(diethoxyphosphoryl) pyrrolidine]
pKa (physchem [2]): 3.47
pKa (physchem [3]): 3.5

pKa (physchem [2]): 3.9
SMILES: CC(C)OP(=O)(OC(C)C)C1(P(=O)(OC(C)C)OC(C)C)CCCN1 [Compound 3, 2,2-bis(diisopropoxyphosphoryl) pyrrolidine]

SMILES: CCOP(=O)(OCC)C1(C)CCC(C)(P(=O)(OCC)OCC)N1 (centres unmarked) [Compound 4, 2,5-bis(diethoxyphosphoryl)-2,5-dimethylpyrrolidine]
pKa (physchem [2]): 2.45
